Assay results taken from publication PMC9585589 (ACS Chemical Neuroscience, 2022).
Read-outs that look alike come from different tables or passages of the source.

How the values were obtained:
human CB1 = details: one per compound, cited from earlier work
human CB1 receptor = human CB1 receptor (Homo sapiens, UniProt P21554); test: biochemical; type: binding; set-up: purchased Merck HTS019M; host or cells: Chem-1 cells
Excerpt: Compounds selected for the in vitro binding assay from the first iteration of VS were purchased via MolPort, SIA, Riga, Latvia and Biopurify Phytochemicals Ltd., Chengdu, China. Compounds from the second iteration were purchased from MolPort, SIA, Riga, Latvia and Chemspace, SIA, Riga, Latvia (Supporting Information S3). […] Membranes from cells overexpressing the human CB1 receptor (ChemiScreen CB1 Cannabinoid Receptor Membrane Preparation, cat. no. HTS019M) as well as MgCl2, CaCl2, Trizma Base, NaCl, polyethylenimine (PEI) and dimethyl sulfoxide (DMSO) were purchased from Merck (USA). Bovine serum albumin (BSA) was obtained from Pol-Aura (Poland).
Compounds were dissolved in 50% DMSO and added to the reaction mixture at 10 concentrations equally spaced on a log scale (10^–10 to 10^–4.5 M). The final DMSO concentration was 5%. […] The reaction mixture (500 μL) was incubated for 1.5 h at 30°C . Before harvesting, Whatman GF/B Filter Paper (Brandel, USA) was presoaked with 0.33% PEI buffer for 30 min. and then washed with 2 ml of 50 mM Tris-HCl buffer (pH = 7.4) and 0.5% BSA to minimize non-specific binding. The reaction was terminated by depositing the samples onto GF/B filter paper with the Brandel M-24 Cell Harvester (Brandel, USA). Samples were then rapidly washed 3 times with 2 ml of ice-cold wash buffer (50 mM Tris-HCl pH 7.4, 500 mM NaCl) to separate the bound radioligand from free. Filters were then air-dried for 1 h at 60°C . After drying, filter discs were placed on a flexible 24-well plate and 500 μL of EcoScint-20 scintillant was added to each well. Plates were counted (2 min. per well) in a Trilux MicroBeta^2 2450 scintillation counter (Perkin Elmer, USA). Data were analyzed with GraphPad Prism 5.0 software.[89]

[1] = CB1 antagonists/inverse agonists, Table S9, ref SI (20)-(38)
[2] = CB1 agonists, Table S8, ref SI (1)-(19)
[3] = [3H]CP-55,940 displacement, membranes of Chem-1 cells expressing human CB1
[4] = [3H]CP-55,940 displacement, membranes of Chem-1 cells expressing human CB1, read-out: pKi ± SEM (converted)

Chain of human CB1 receptor (P21554 whole entry): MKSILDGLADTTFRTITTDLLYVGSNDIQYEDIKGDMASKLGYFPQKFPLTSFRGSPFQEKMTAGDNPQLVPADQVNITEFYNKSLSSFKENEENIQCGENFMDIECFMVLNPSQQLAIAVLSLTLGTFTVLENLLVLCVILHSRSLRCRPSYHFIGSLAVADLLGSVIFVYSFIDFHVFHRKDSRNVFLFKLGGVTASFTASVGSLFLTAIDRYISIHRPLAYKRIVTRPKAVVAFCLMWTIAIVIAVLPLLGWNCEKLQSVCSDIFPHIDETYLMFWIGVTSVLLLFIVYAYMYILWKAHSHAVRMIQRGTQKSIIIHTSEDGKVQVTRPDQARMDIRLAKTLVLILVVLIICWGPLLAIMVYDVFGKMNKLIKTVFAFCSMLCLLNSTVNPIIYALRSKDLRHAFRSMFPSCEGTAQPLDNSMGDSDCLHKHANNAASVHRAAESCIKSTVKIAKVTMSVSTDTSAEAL

| SMILES | pKi ± SEM (human CB1 receptor; [3]) | Ki (μM, 95% CI) (human CB1 receptor) | further results |
| --- | --- | --- | --- |
| Cc1c(C(=O)NN2CCS(=O)(=O)CC2)nn(-c2ccc(Cl)cc2Cl)c1-c1ccc(C#CCCC#N)cc1 [AM-6545] | – | – | Ki (human CB1; [1]): 1.7 nM |
| CCCCCn1cc(C(=O)C2C(C)(C)C2(C)C)c2ccccc21 [UR-144] | – | – | Ki (human CB1; [2]): 29 nM |
| O=C(/C=C/c1ccc(O)cc1)OC[C@H]1O[C@@H](Oc2c(-c3ccc(O)cc3)oc3cc(O)cc(O)c3c2=O)[C@H](O)[C@@H](O)[C@@H]1O [Compound 22, Tiliroside] | – | – | Ki (human CB1 receptor; Ki (μM, 95% CI)): 47.2 µM |
| CC(C)=CCCC1(C)C=Cc2c(ccc(C3CC(=O)c4c(O)cc(O)cc4O3)c2O)O1 (stereo not drawn) [Compound 26, Sanggenon N] | 4.71 ± 0.05 | – | Ki (human CB1 receptor; read-out: Ki (μM, 95% CI)): 19 µM |
| COc1ccc(-c2cc(=O)c3c(O)cc4c(c3o2)C(c2cccc(Cl)c2F)CC(=O)O4)cc1O (racemic) [Compound 31] | no activity | no activity | – |
| CN=C(NS(=O)(=O)c1ccc(Cl)cc1)N1C[C@H](c2ccccc2)C(c2ccc(Cl)cc2)=N1 [Ibipinabant] | – | – | Ki (human CB1; [1]): 7.8 nM |
| COc1cc(C(C)=O)ccc1OCCCN1CCC(c2noc3cc(F)ccc23)CC1 [Compound 3, Iloperidone] | – | – | Ki (human CB1 receptor; Ki (μM, 95% CI)): 87.9 µM; Ki (human CB1 receptor; [4]): 89.1 µM |
| O=S(=O)(CCCC(F)(F)F)Oc1cccc(Oc2cccc3c2C[C@H](CO)C3)c1 [BAY 38-7271] | – | – | Ki (human CB1; [2]): 2.91 nM |
| COc1ccc(-n2c(=O)c3ccc(C(=O)NCCc4ccccc4)cc3n(Cc3ccccc3F)c2=O)cc1 [Compound 40] | no activity | no activity | – |
| CC(C)=CCC/C(C)=C/Cc1cc(C2CC(=O)c3c(O)cc(O)cc3O2)c(O)cc1O (stereo not drawn) [Compound 24, Kuwanon E] | – | – | Ki (human CB1 receptor; [4]): 30.9 µM |
| CC(C)N1CCOc2c(nn(-c3ccccc3Cl)c2-c2ccc(Cl)cc2)C1=O [CHEMBL482741] | – | – | Ki (human CB1; [1]): 1.3 nM |
| CC1=CC[C@@H]2[C@@H](C1)c1c(O)cc(C34CC5CC(CC(C5)C3)C4)cc1OC2(C)C [AM-411] | – | – | Ki (human CB1; [2]): 6.8 nM |
| CCc1c(C(=O)NN2CCCCC2)nn(-c2ccc(Cl)cc2Cl)c1-c1ccc(Br)cc1 [Surinabant] | – | – | Ki (human CB1; [1]): 3.5 nM |
| COC(=O)C1=C(C)NC(C)=C(C(=O)OCCN(C)Cc2ccccc2)C1c1cccc([N+](=O)[O-])c1 (stereo not drawn) [Compound 5, Nicardipine] | no activity | no activity | – |
| Cc1ccc(COc2ccc3c(C)c(CC(=O)N4CCC5(O)CCCCC5C4)c(=O)oc3c2C)cc1 (racemic) [Compound 27] | insoluble | insoluble | – |
| Cc1c(C(=O)NN2CCCCC2)nn(-c2ccc(Cl)cc2Cl)c1-c1ccc(N)cc1 [CHEMBL349955] | – | – | Ki (human CB1; [1]): 81.5 nM |
| CCNC1(C(N)=O)CCN(c2cnc(-c3ccc(OCC)cc3)c(-c3ccccc3Cl)n2)CC1 [CHEMBL495891] | – | – | Ki (human CB1; [1]): 15 nM |
| CCCCCCC(C)(C)c1cc(O)c2c(c1)OC(C)(C)[C@@H]1CC=C(CO)C[C@@H]21 [HU-210] | – | – | Ki (human CB1; [2]): 0.06 nM |
| COc1cc(C2Oc3cc([C@H]4Oc5cc(O)cc(O)c5C(=O)[C@@H]4O)ccc3OC2CO)ccc1O (stereo partly drawn) [Compound 20, Silybin] | – | – | Ki (human CB1 receptor; Ki (μM, 95% CI)): 165 µM |
| O=c1[nH]c2ccccc2n1CCN1CCN(c2cccc(C(F)(F)F)c2)CC1 [Compound 2, Flibanserin] | – | – | Ki (human CB1 receptor; Ki (μM, 95% CI)): 109 µM |
| COc1cc2c(cc1OC)[C@@H](Cc1ccc(O)c(Oc3cc4c(cc3OC)CCN(C)[C@@H]4Cc3ccc(O)cc3)c1)N(C)CC2 [Compound 16, Liensinine] | no activity | no activity | – |
| O=C(NCCc1ccc(F)cc1)c1cc2c([nH]c3ccccc32)c(-c2ccc(F)cc2)n1 [Compound 23] | no activity | no activity | – |
| O=C1NCCN1CCN1CCC(c2cn(-c3ccc(F)cc3)c3ccc(Cl)cc23)CC1 [Compound 44, Sertindole] | – | – | Ki (human CB1 receptor; [4]): 41.7 µM |

| SMILES | pKi ± SEM (human CB1 receptor; [3]) | Ki (μM, 95% CI) (human CB1 receptor) | further results |
| --- | --- | --- | --- |
| O=C(O[C@@H]1O[C@@H]2COC(=O)c3cc(O)c(O)c(O)c3-c3c(cc(O)c(O)c3O)C(=O)O[C@H]([C@H]1O)[C@@H]2O)c1cc(O)c(O)c(O)c1 [Compound 13, Corilagin] | – | – | Ki (human CB1 receptor; Ki (μM, 95% CI)): 48 µM |
| O=C(NC[C@H]1CN(c2ccc(N3CCOCC3=O)cc2)C(=O)O1)c1ccc(Cl)s1 [Compound 7, Rivaroxaban] | no activity | no activity | – |
| CC(C)COc1ccc(CNC(=O)N(Cc2ccc(F)cc2)C2CCN(C)CC2)cc1 [Compound 6, Pimavanserin] | – | – | Ki (human CB1 receptor; [4]): 33.9 µM |
| CCCS(=O)(=O)Nc1ccc(F)c(C(=O)c2c[nH]c3ncc(-c4ccc(Cl)cc4)cc23)c1F [Compound 29, Vemurafenib] | no activity | no activity | – |
| COc1cc2c(cc1OC)CN(C(=O)NC(CCSC)C(=O)NC1CCCc3ccccc31)CC2 (racemic) [Compound 39] | 4.40 ± 0.07 | – | Ki (human CB1 receptor; read-out: Ki (μM, 95% CI)): 40 µM |
| Cc1c(O[C@H](C)C(=O)NC[C@@H](O)c2ccccc2)ccc2c(-c3ccccc3)cc(=O)oc12 (racemic) [Compound 25] | 4.86 ± 0.09 | – | Ki (human CB1 receptor; read-out: Ki (μM, 95% CI)): 13.9 µM |
| COc1ccc(-c2nc(C(=O)NCCc3ccc(Cl)cc3Cl)cc3c2[nH]c2ccccc23)cc1OC [Compound 35] | 4.35 ± 0.09 | – | Ki (human CB1 receptor; read-out: Ki (μM, 95% CI)): 44 µM |
| COc1ccc(-c2nc3ccc(C(=O)NCc4ccc(Cl)cc4)cc3nc2-c2ccc(OC)cc2)cc1 [Compound 37] | no activity | no activity | – |
| Cc1ccc(S(=O)(=O)NC(Cc2c[nH]c3ccccc23)C(=O)Oc2ccc3c4c(c(=O)oc3c2)CCC4)cc1 (racemic) [Compound 36] | 4.39 ± 0.09 | – | Ki (human CB1 receptor; read-out: Ki (μM, 95% CI)): 41 µM |
| O=C1[C@@H]2[C@H]3CC[C@H](C3)[C@@H]2C(=O)N1C[C@@H]1CCCC[C@H]1CN1CCN(c2nsc3ccccc23)CC1 [Compound 4, Lurasidone] | – | – | Ki (human CB1 receptor; Ki (μM, 95% CI)): 39.8 µM |
| CCCSc1nc(N[C@@H]2C[C@H]2c2ccc(F)c(F)c2)c2nnn([C@@H]3C[C@H](OCCO)[C@@H](O)[C@H]3O)c2n1 [Compound 8, Ticagrelor] | – | – | Ki (human CB1 receptor; [4]): 36.3 µM |
| O=c1cc(-c2ccc(O)cc2)oc2c(C3O[C@H](CO)[C@@H](O[C@@H]4O[C@H](CO)[C@@H](O)[C@H](O)[C@H]4O)[C@H](O)[C@H]3O)c(O)cc(O)c12 (stereo partly drawn) [Compound 11, 4”-O-Glucosylvitexin] | no activity | no activity | – |
| COc1cc2c(=O)c3c(O)c([C@@H]4O[C@H](CO[C@@H]5OC[C@](O)(CO)[C@H]5O)[C@@H](O)[C@H](O)[C@H]4O)c(O)cc3oc2cc1O [Compound 18, Polygalaxanthone III] | no activity | no activity | – |
| CC(C)(O)[C@@H]1CC[C@](C)([C@H]2[C@@H](O)C[C@@]3(C)[C@@H]4C[C@H](O)[C@H]5C(C)(C)[C@@H](O)CC[C@@]56C[C@@]46CC[C@]23C)O1 [Compound 14, Cyclogalegenol] | 3.76 ± 0.20 | – | Ki (human CB1 receptor; read-out: Ki (μM, 95% CI)): 175 µM |
| OCC1=C[C@@H](O)[C@]2(O[C@@H]3O[C@H](CO)[C@@H](O)[C@H](O)[C@H]3O[C@@H]3O[C@H](CO)[C@@H](O)[C@H](O)[C@H]3O)C=CO[C@@H](O[C@@H]3O[C@H](CO)[C@@H](O)[C@H](O)[C@H]3O)[C@H]12 [Compound 19, Rehmannioside D] | no activity | no activity | – |
| C[C@@]12C[C@@]3(O)O[C@@H](O1)[C@]1(COC(=O)c4ccccc4)[C@H]3C[C@@]12O[C@@H]1O[C@H](COC(=O)c2ccccc2)[C@@H](O)[C@H](O)[C@H]1O [Compound 12, Benzoylpaeoniflorin] | – | – | Ki (human CB1 receptor; Ki (μM, 95% CI)): 179 µM |
| O=c1c(O)cc([C@H]2Oc3cc(O)cc(O)c3C[C@H]2O)cc2c([C@H]3Oc4cc(O)cc(O)c4C[C@H]3O)cc(O)c(O)c12 [Compound 21, Theaflavin] | no activity | no activity | – |
| COc1ccc(CCNC(=O)c2[nH]c3ccccc3c2NC(=O)c2cccc(C)c2)cc1OC [Compound 28] | no activity | no activity | – |
| CCCCNC(=O)[C@@H]1CN(C(=O)c2cccc(OC)c2)C[C@H]1c1ccc(OC)cc1OC (racemic) [Compound 42] | no activity | no activity | – |
| Cc1nc2c([nH]1)-c1ccccc1N(C(=O)c1ccc(NC(=O)c3ccccc3-c3ccccc3)cc1)CC2 [Compound 45, Conivaptan] | no activity | no activity | – |
| COc1ccccc1Oc1c(NS(=O)(=O)c2ccc(C(C)(C)C)cc2)nc(-c2ncccn2)nc1OCCO [Compound 1, Bosentan] | – | – | Ki (human CB1 receptor; Ki (μM, 95% CI)): 259 µM |
| CC(C)=CCC[C@](C)(O)[C@H]1CC[C@]2(C)[C@@H]1[C@H](O)C[C@@H]1[C@@]3(C)CC[C@H](O)C(C)(C)[C@@H]3[C@@H](O)C[C@]12C [Compound 10, (20S)-Protopanaxatriol] | no activity | no activity | – |
